The record followed here is patent US20240299328A1, “COMPOSITIONS COMPRISING 15-HEPE AND METHODS OF TREATING AND/OR PREVENTING HEMATOLOGIC DISORDERS AND RELATED DISEASES” (Afimmune Limited, priority 2023, published 2024).

Assay [1] has as its system protein and lipid biomarkers of NAFLD patients. The experiment in a line: Phase IIa NAFLD study: lipidomics and proteomics of blood samples. It counts as in vivo, human. An excerpt:
Exploratory analysis: The exploratory analysis included analysis of lipid and metabolic parameters including total cholesterol, triglycerides, very low-density lipoprotein cholesterol (VLDL-C), low density lipoprotein cholesterol (LDL-C), high density lipoprotein cholesterol (HDL-C), non-high-density lipoprotein cholesterol (non-HDL-C), remnant-like particle cholesterol (RLP-C), fasting glucose, insulin, free fatty acids and hemoglobin A1C (HbA1C). Additional exploratory analysis included high throughput lipidomics and proteomics.

The test system of assay [2] is humanized sickle cell (SS) mice exposed to H/R stress. Description: SCD (SS) mice exposed to H/R stress: lung, kidney and liver histopathology. The assay is classed as in vivo. The arrangement: key to Lung thrombi / Kidney thrombi / Liver thrombi: 0: no thrombi; +: presence of thrombi per field at the magnification ×250. The conditions noted are these: 1000 mg/Kg/d for 6 weeks. The procedure: Lung, kidney and liver histological analysis: Paraffin-embedded tissue blocks were cut into 2-3 μm sections and mounted on adhesion microscope glass slides for Hematoxylin-Eosin (H&E), and Perls' staining for iron content. The analysis was performed on four different fields at a magnification 200×. Tissue pathological analysis, inflammatory cell infiltrate, the presence of thrombi and iron deposition were carried out by blinded pathologists as previously described.
Score for inflammatory cell infiltrate. Quantification of inflammatory cell infiltrates was expressed as the mean of cells per field at magnification of X250, as resulting by the analysis of at least 10 different fields on each hematoxylin-eosin-stained whole lung section. Data are expressed as means±SEM; * p<0.05 compared to normoxia.
Thrombi: 0: no thrombi; +: presence of thrombi per field at the magnification ×250.
Score for inflammatory cell infiltrate. Quantification of inflammatory cell infiltration in renal cortex of kidney was determined in hematoxylin-eosin-stained sections using a 0 to 4 scale based on the percentage of cell infiltrates occupied area in each filed. 0 (no sign of infiltration); 1 (1-10% of the area with cell infiltration); 2 (11-25%); 3 (26-50%); 4 […]. The mean of 15 randomly selected field were analyzed at magnification ×400. Data are expressed as means±SEM; * p<0.05 compared to normoxia; ºp<0.05 compared to vehicle. Thrombi: 0: no thrombi; +: presence of thrombi presence of thrombi per field at the magnification ×250.
Score for inflammatory cell infiltrate. Quantification of inflammatory cell infiltrates was expressed as the mean of cells per field at magnification of ×250, as resulting by the analysis of at least 10 different fields on each hematoxylin-eosin-stained whole liver section. Data are expressed as means±SEM; * p<0.05 compared to normoxia.
Thrombi: 0: no thrombi; +: presence of thrombi presence of thrombi per field at the magnification ×250.
Statistical analysis: Non-parametric Pairwise Wilcoxon Rank Sum Tests was used.

Assay [3] relates to α-SMA, TIMP-1, TGF-β and Collagen Type 1 mRNA. Description: BDL study: quantitative RT-PCR of liver. It counts as in vivo. The conditions noted are these: BDL mice liver, normalized to 36B4, Day 14, mean ± SD. The procedure: Quantitative RT-PCR: Total ribonucleic acid (RNA) was extracted from liver samples using RNAiso. One μg of RNA was reverse-transcribed using a reaction mixture containing 4.4 mM magnesium chloride (MgCl2), 40 U RNase inhibitor, 0.5 mM dNTP, 6.28 μM random hexamer, 5× first strand buffer, 10 mM dithiothreitol and 200 U MMLV-RT in a final volume of 20 μL. The reaction was carried out for 1 hour at 37° C., followed by 5 minutes at 99° C. Real-time PCR was performed using real-time PCR DICE and TB Green™ Premix Ex Taq™ II. To calculate the relative mRNA expression level, the expression of each gene (α-SMA, TIMP-1, TGF-β and Collagen Type 1) was normalized to that of reference gene 36B4 (gene symbol: Rplp0). Information regarding the PCR-primer sets and the plate layout are described in Tables 8 and 9.

Turning to `CC/C=C\C[C@H](O)/C=C/C=C\C/C=C\C/C=C\CCCC(=O)OCC` [DS102, 15(S)-hydroxy-(5Z,8Z,11Z,13E,17Z)-eicosapentaenoic acid ethyl ester], in assay [1], the “expression of multiple circulating chemokines” value is “decreased”, the “expression of multiple proteins associated with increased cardiovascular risk” value is recorded as “decreased”, the “expression of multiple tumor necrosis factor receptor superfamily members” value is on record as “decreased” and the “expression of multiple vascular adhesion molecules” value was “decreased”. Besides, in assay [1] (1 g), the “TR (transferrin receptor protein 1)” value is “significant reductions”. Further, in assay [1] (2 g), the “NASH drug development targets (CCR2/5 signaling, Galectin3, AOC3)” value is listed as “decreased”; the “levels of multiple glycerophospholipid groups” value is on record as “significantly increased”; the “levels of multiple hepatotoxic diglycerides” value is “significantly decreased”. The “inflammatory and pro-fibrotic proteins (Table 19: PAI-1, TIMP-1, DPP4, TLT2, CCL16, MCP-1, SAA4, PI3/Elafin, TR, LILRB1, TNRSF11A)” value in assay [1] (2 g, Bonferroni and Benjamini-Hochberg testing) is on record as “decreased”. Further, the “number of markers (inflammation, fibrosis, lipid metabolism, apoptosis, chemotaxis) with significantly downregulated expression” value in assay [1] (2 g, panel of greater than 350 protein biomarkers) is given as “over 150”. Moreover, in assay [2] (n = 4), the Kidney thrombi is 0, the Liver thrombi is recorded as 0 and the Lung thrombi was 0. Moreover, in assay [2] (vs vehicle), the “liver iron accumulation (Perls' staining)” value is listed as “significant reduction” and the “thrombi formation in liver” value is on record as “significant reduction”. Besides, in assay [3] (50 mg/kg PO QD Day 0-13), the “Alpha-SMA mRNA expression level” value was 3.21 ± 1.67, the “Collagen Type 1 mRNA expression level” value is recorded as 4.94 ± 2.76, the “TGF-β mRNA expression level” value is recorded as 1.48 ± 0.48 and the “TIMP-1 mRNA expression level” value is 43.82 ± 26.19. Also, in assay [3] (250 mg/kg PO QD Day 0-13), the “Alpha-SMA mRNA expression level” value came to 2.66 ± 1.33, the “Collagen Type 1 mRNA expression level” value was 4.21 ± 1.90, the “TGF-β mRNA expression level” value is reported as 1.50 ± 0.44 and the “TIMP-1 mRNA expression level” value was 30.65 ± 16.80.
